# Literature values as cited in patent publication US11666537B2, “Solid oral dosage form of irinotecan for the treatment of cancer” (Oncoral Pharma ApS, priority 2014, dated 2023).
# Tested on: tumor cells
# Conditions: human and rodent tumor cell lines
structure (smiles),measurement,value
CCc1c2c(nc3ccc(O)cc13)-c1cc3c(c(=O)n1C2)COC(=O)[C@]3(O)CC [SN-38],times more cytotoxic than irinotecan,100-1000 times
